Experimental data reported in patent US20250346592A1 (Celgene Corporation, priority 2022, published 2025).

What was measured:
[1] = molecular target: T1, hPAD4 enzyme (Homo sapiens (Human), UniProt Q9UM07); test: RFMS2 assay (RapidFire mass spectrometry, TSTGGRQGSHH peptide substrate); assay type: biochemical; settings: 35 nM recombinant human PAD4, 500 μM TSTGGRQGSHH peptide, 30 minutes at room temperature; read-out: RFMS 2 IC50
Method in brief: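 Recombinant human PAD4 (35 nM) with 500 μM TSTGGRQGSHH peptide in HEPES pH 7.4, 200 mM NaCl, 2 mM CaCl2, 5 mM DTT, 1.2% DMSO, 30 min at room temperature; 3-fold compound series, top 20 μM. Quenched with formic acid; substrate and citrullinated product quantified by RapidFire MRM mass spectrometry for IC50.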

[2] = molecular target: T1, hPAD4 enzyme; test: RFMS1 assay (RapidFire mass spectrometry, BAEE substrate); assay type: biochemical; settings: 5 nM hPAD4, 250 μM BAEE, 30 min preincubation at 37° C., 90 min reaction; read-out: RFMS 1 IC50
Method in brief: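 hPAD4 (5 nM) preincubated 30 min at 37° C. with compound, then 250 μM BAEE for 90 min at 37° C. in pH 7.5 HEPES buffer with 50 μM calcium, 1 mM DTT, 5 μM TPEN. TCA quench, phenyl glyoxal derivatisation; citrulline product measured by RapidFire MS, normalised to internal standard; IC50 values.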

T1 sequence (Q9UM07 whole entry): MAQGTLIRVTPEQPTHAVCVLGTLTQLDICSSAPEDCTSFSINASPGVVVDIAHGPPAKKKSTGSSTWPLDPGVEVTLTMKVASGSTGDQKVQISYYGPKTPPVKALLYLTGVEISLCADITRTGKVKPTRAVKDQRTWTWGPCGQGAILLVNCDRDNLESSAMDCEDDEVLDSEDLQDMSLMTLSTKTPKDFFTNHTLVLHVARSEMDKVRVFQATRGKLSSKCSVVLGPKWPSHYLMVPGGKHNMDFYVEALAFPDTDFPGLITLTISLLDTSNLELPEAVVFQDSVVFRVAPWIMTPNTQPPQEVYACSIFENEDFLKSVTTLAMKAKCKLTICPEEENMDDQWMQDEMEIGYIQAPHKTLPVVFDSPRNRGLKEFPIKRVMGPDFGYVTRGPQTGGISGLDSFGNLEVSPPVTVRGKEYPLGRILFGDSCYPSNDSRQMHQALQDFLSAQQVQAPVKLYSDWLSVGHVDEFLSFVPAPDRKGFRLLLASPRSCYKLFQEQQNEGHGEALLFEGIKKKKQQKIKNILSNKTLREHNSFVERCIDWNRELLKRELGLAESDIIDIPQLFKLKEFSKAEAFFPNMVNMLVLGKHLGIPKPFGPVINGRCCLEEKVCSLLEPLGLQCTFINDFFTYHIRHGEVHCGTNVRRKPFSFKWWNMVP

Compound: Cn1c(-c2cc3cccc(OCCc4cnoc4)c3n2CC2CC2)nc2cc3c(cc21)CCN(C[C@H](N)CF)C3=O [Example 204, (S)-6-(2-amino-3-fluoropropyl)-2-(1-(cyclopropylmethyl)-7-(2-(isoxazol-4-yl)ethoxy)-1H-indol-2-yl)-1-methyl-1,6,7,8-tetrahydro-5H-imidazo[4,5-g]isoquinolin-5-one]
- IC50 [1]: 11 to 100 nM
- IC50 [2]: ≤ 10 nM

Compound: Cn1c(-c2cc3cccc(OCCO)c3n2CC2CC2)nc2cc3c(cc21)CCN(C[C@H](N)CF)C3=O [Example 205, (S)-6-(2-amino-3-fluoropropyl)-2-(1-(cyclopropylmethyl)-7-(2-hydroxyethoxy)-1H-indol-2-yl)-1-methyl-1,6,7,8-tetrahydro-5H-imidazo[4,5-g]isoquinolin-5-one]
- IC50 [1]: 101 to 500 nM
- IC50 [2]: 11 to 100 nM

Compound: Cn1c(-c2cc3cccc(OC[C@@H]4CNC(=O)O4)c3n2CC2CC2)nc2cc3c(cc21)CCN(C[C@H](N)CF)C3=O [Example 206, (S)-5-(((2-(6-((S)-2-amino-3-fluoropropyl)-1-methyl-5-oxo-5,6,7,8-tetrahydro-1H-imidazo[4,5-g]isoquinolin-2-yl)-1-(cyclopropylmethyl)-1H-indol-7-yl)oxy)methyl)oxazolidin-2-one]
- IC50 [1]: 11 to 100 nM
- IC50 [2]: ≤ 10 nM

Compound: COC(=O)NCCOc1cccc2cc(-c3nc4cc5c(cc4n3C)CCN(C[C@H](N)CF)C5=O)n(CC3CC3)c12 [Example 207, methyl (S)-(2-((2-(6-(2-amino-3-fluoropropyl)-1-methyl-5-oxo-5,6,7,8-tetrahydro-1H-imidazo[4,5-g]isoquinolin-2-yl)-1-(cyclopropylmethyl)-1H-indol-7-yl)oxy)ethyl)carbamate]
- IC50 [1]: 101 to 500 nM
- IC50 [2]: 11 to 100 nM

Compound: COC(=O)N[C@@H](C)COc1cccc2cc(-c3nc4cc5c(cc4n3C)CCN(C[C@H](N)CF)C5=O)n(CC3CC3)c12 [Example 208, methyl ((S)-1-((2-(6-((S)-2-amino-3-fluoropropyl)-1-methyl-5-oxo-5,6,7,8-tetrahydro-1H-imidazo[4,5-g]isoquinolin-2-yl)-1-(cyclopropylmethyl)-1H-indol-7-yl)oxy)propan-2-yl)carbamate]
- IC50 [1]: 101 to 500 nM
- IC50 [2]: 11 to 100 nM

Compound: Cn1c(-c2cc3cccc(OCCn4cnnc4)c3n2CC2CC2)nc2cc3c(cc21)CCN(C[C@H](N)CF)C3=O [Example 210, (S)-2-(7-(2-(4H-1,2,4-triazol-4-yl)ethoxy)-1-(cyclopropyl-methyl)-1H-indol-2-yl)-6-(2-amino-3-fluoropropyl)-1-methyl-1,6,7,8-tetrahydro-5H-imidazo[4,5-g]isoquinolin-5-one]
- IC50 [1]: 11 to 100 nM
- IC50 [2]: 11 to 100 nM

Compound: C[C@@H](COc1cccc2cc(-c3nc4cc5c(cc4n3C)CCN(C[C@H](N)CF)C5=O)n(CC3CC3)c12)n1ccnc1 [Example 212, 2-(7-((S)-2-(1H-imidazol-1-yl)propoxy)-1-(cyclopropylmethyl)-1H-indol-2-yl)-6-((S)-2-amino-3-fluoropropyl)-1-methyl-1,6,7,8-tetrahydro-5H-imidazo[4,5-g]isoquinolin-5-one]
- IC50 [1]: 11 to 100 nM
- IC50 [2]: ≤ 10 nM

Compound: C[C@H](COc1cccc2cc(-c3nc4cc5c(cc4n3C)CCN(C[C@H](N)CF)C5=O)n(CC3CC3)c12)n1ccnc1 [Example 213, 2-(7-((R)-2-(1H-imidazol-1-yl)propoxy)-1-(cyclopropylmethyl)-1H-indol-2-yl)-6-((S)-2-amino-3-fluoropropyl)-1-methyl-1,6,7,8-tetrahydro-5H-imidazo[4,5-g]isoquinolin-5-one]
- IC50 [1]: 101 to 500 nM
- IC50 [2]: ≤ 10 nM

Compound: C[C@@H](Cn1ccnc1)Oc1cccc2cc(-c3nc4cc5c(cc4n3C)CCN(C[C@H](N)CF)C5=O)n(CC3CC3)c12 [Example 222, 2-(7-(((S)-1-(1H-imidazol-1-yl)propan-2-yl)oxy)-1-(cyclopropylmethyl)-1H-indol-2-yl)-6-((S)-2-amino-3-fluoropropyl)-1-methyl-1,6,7,8-tetrahydro-5H-imidazo[4,5-g]isoquinolin-5-one]
- IC50 [1]: 101 to 500 nM
- IC50 [2]: 11 to 100 nM

Compound: C[C@H](Cn1ccnc1)Oc1cccc2cc(-c3nc4cc5c(cc4n3C)CCN(C[C@H](N)CF)C5=O)n(CC3CC3)c12 [Example 223, 2-(7-(((R)-1-(1H-imidazol-1-yl)propan-2-yl)oxy)-1-(cyclopropylmethyl)-1H-indol-2-yl)-6-((S)-2-amino-3-fluoropropyl)-1-methyl-1,6,7,8-tetrahydro-5H-imidazo[4,5-g]isoquinolin-5-one]
- IC50 [1]: 101 to 500 nM
- IC50 [2]: ≤ 10 nM

Compound: Cn1c(-c2cc3cccc(/C=C/Cn4ccnc4)c3n2CC2CC2)nc2cc3c(cc21)CCN(C[C@H](N)CF)C3=O [Example 227, (S,E)-2-(7-(3-(1H-imidazol-1-yl)prop-1-en-1-yl)-1-(cyclopropylmethyl)-1H-indol-2-yl)-6-(2-amino-3-fluoropropyl)-1-methyl-1,6,7,8-tetrahydro-5H-imidazo[4,5-g]isoquinolin-5-one]
- IC50 [1]: 11 to 100 nM
- IC50 [2]: ≤ 10 nM

Compound: Cn1c(-c2cc3cccc(CCCn4ccnc4)c3n2CC2CC2)nc2cc3c(cc21)CCN(C[C@H](N)CF)C3=O [Example 228, (S)-2-(7-(3-(1H-imidazol-1-yl)propyl)-1-(cyclopropylmethyl)-1H-indol-2-yl)-6-(2-amino-3-fluoropropyl)-1-methyl-1,6,7,8-tetrahydro-5H-imidazo[4,5-g]isoquinolin-5-one]
- IC50 [1]: 101 to 500 nM
- IC50 [2]: ≤ 10 nM

Compound: CN[C@H](C)CN1CCc2cc3c(cc2C1=O)nc(-c1cc2cccc(OCC4CNC(=O)C4)c2n1CC1CC1)n3C (stereo partly drawn) [Example 229, 2-(1-(cyclopropylmethyl)-7-((5-oxopyrrolidin-3-yl)methoxy)-1H-indol-2-yl)-1-methyl-6-((R)-2-(methylamino)propyl)-1,6,7,8-tetrahydro-5H-imidazo[4,5-g]isoquinolin-5-one]
- IC50 [1]: 101 to 500 nM
- IC50 [2]: 501 to 1000 nM

Compound: COc1cccc2cc(-c3nc4cc5c(cc4n3C)CCN(C[C@H]3COCCN3)C5=O)n(CC3CC3)c12 [Example 231, (S)-2-(1-(cyclopropylmethyl)-7-methoxy-1H-indol-2-yl)-1-methyl-6-(morpholin-3-ylmethyl)-1,6,7,8-tetrahydro-5H-imidazo[4,5-g]isoquinolin-5-one]
- IC50 [1]: 501 to 1000 nM
- IC50 [2]: 101 to 500 nM

Compound: COc1cccc2cc(-c3nc4cc5c(cc4n3C)CCN(C[C@H]3COCCN3)C5=O)n(Cc3ncco3)c12 [Example 232, (S)-2-(7-methoxy-1-(oxazol-2-ylmethyl)-1H-indol-2-yl)-1-methyl-6-(morpholin-3-ylmethyl)-1,6,7,8-tetrahydro-5H-imidazo[4,5-g]isoquinolin-5-one]
- IC50 [1]: 101 to 500 nM
- IC50 [2]: 101 to 500 nM

Compound: Cn1c(-c2cc3cccc(OCCn4cnnc4)c3n2CC2CC2)nc2cc3c(cc21)CCN(C[C@H]1COCCN1)C3=O [Example 234, 2-[1-(cyclopropylmethyl)-7-[2-(1,2,4-triazol-4-yl)ethoxy]indol-2-yl]-1-methyl-6-[[(3S)-morpholin-3-yl]methyl]-7,8-dihydroimidazo[4,5-g]isoquinolin-5-one]
- IC50 [1]: 501 to 1000 nM
- IC50 [2]: 11 to 100 nM

Compound: Cn1c(-c2cc3ccccc3n2CC2CC2)nc2cc3c(c(F)c21)CCN(C[C@H](N)CF)C3=O [Example 236, (S)-6-(2-amino-3-fluoropropyl)-2-(1-(cyclopropylmethyl)-1H-indol-2-yl)-9-fluoro-1-methyl-1,6,7,8-tetrahydro-5H-imidazo[4,5-g]isoquinolin-5-one]
- IC50 [1]: 501 to 1000 nM
- IC50 [2]: 101 to 500 nM

Compound: C[C@@H](N)CN1CCc2c(cc3nc(-c4cc5ccccc5n4CC4CC4)n(C)c3c2F)C1=O [Example 237, (R)-6-(2-aminopropyl)-2-(1-(cyclopropylmethyl)-1H-indol-2-yl)-9-fluoro-1-methyl-1,6,7,8-tetrahydro-5H-imidazo[4,5-g]isoquinolin-5-one]
- IC50 [1]: 101 to 500 nM
- IC50 [2]: 101 to 500 nM

Compound: COc1cccc2cc(-c3nc4cc5c(c(F)c4n3C)CCN(C[C@H](N)CF)C5=O)n(CC3CC3)c12 [Example 238, (S)-6-(2-amino-3-fluoropropyl)-2-(1-(cyclopropylmethyl)-7-methoxy-1H-indol-2-yl)-9-fluoro-1-methyl-1,6,7,8-tetrahydro-5H-imidazo[4,5-g]isoquinolin-5-one]
- IC50 [1]: 101 to 500 nM
- IC50 [2]: 11 to 100 nM
